# Source: US20250163104A1, “MACROCYCLIC IMMUNOMODULATORS” (priority 2021, published 2025)
# Where a SMILES comes first, the peptide text is derived from it. Bridges are numbered along the chain shown (N, C = ends). [ ]: non-standard residue; d: D form. Bip = N[C@@H](Cc1ccc(-c2ccccc2)cc1)C(=O)O; Orn = NCCC[C@H](N)C(=O)O; Dab = NCC[C@H](N)C(=O)O; Dap = NC[C@H](N)C(=O)O
# Target: T1, human PD-1 / PD-L1-Ig binding on Jurkat cell line over-expressing human PD-1 (Jurkat-PD-1) (Homo sapiens, UniProt Q15116)
# T1 construct: expressed in transfected cells; host or cells: Jurkat
# T1 sequence (Q15116 25-288): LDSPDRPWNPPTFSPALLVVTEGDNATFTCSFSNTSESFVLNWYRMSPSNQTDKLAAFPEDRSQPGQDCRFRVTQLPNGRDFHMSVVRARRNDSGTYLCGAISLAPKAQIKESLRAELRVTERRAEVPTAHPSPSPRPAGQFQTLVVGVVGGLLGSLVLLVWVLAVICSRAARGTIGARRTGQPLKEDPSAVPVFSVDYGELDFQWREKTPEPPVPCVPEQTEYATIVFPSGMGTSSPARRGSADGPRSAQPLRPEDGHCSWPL
# Experiment: Jurkat-PD-1 Cell Binding High-Content Screening Assay (CBA)
# Format: cell-based
# Conditions: Jurkat-PD-1 cells, PE-labeled PD-L1-Ig 20 nM final; read-out: Jurkat HPD1_PDL1 IC50
# In short: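 Compounds were preincubated with Jurkat-hPD-1 cells in DMEM plus 10% fetal calf serum for 2 h at 37° C. Phycoerythrin-labeled PD-L1-Ig (20 nM final) was then added for 1 hour. Cells were fixed in 4% paraformaldehyde with Hoechst 33342, and bound fluorescence was quantified by high-content imaging.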
row,IC50 [nM],SMILES
1,8.8,CC(C)C[C@@H]1NC(=O)[C@H](Cc2c[nH]c3ccccc23)NC(=O)[C@H](CC(=O)O)NC(=O)[C@H](Cc2ccc(O)cc2)NC(=O)[C@H](Cc2ccccc2)NC(=O)CSC[C@@H](C(=O)N[C@@H](C)C(N)=O)NC(=O)[C@H](CO)NC(=O)[C@H](C(C)C)NC(=O)[C@H](CC(C)C)NC(=O)[C@H](CCN)NC(=O)[C@@H](CC(C)C)NC(=O)[C@H](CCN)NC(=O)[C@H](C(C)C)NC(=O)[C@H](Cc2ccc(-c3ccccc3)cc2)NC1=O [Compound 1061] ({CH2CO}-FYDWL[Bip]V[Dab][dL][Dab]LVSCA-NH2; thioether N-14)
2,12.4,CC(C)C[C@@H]1NC(=O)[C@H](Cc2c[nH]c3ccccc23)NC(=O)[C@H](CC(=O)O)NC(=O)[C@H](Cc2ccc(O)cc2)NC(=O)[C@H](Cc2ccccc2)NC(=O)CSC[C@@H](C(=O)N[C@@H](C)C(N)=O)NC(=O)[C@H]([C@@H](C)O)NC(=O)[C@H](C(C)C)NC(=O)[C@H](CC(C)C)NC(=O)[C@H](CCN)NC(=O)[C@@H](CC(C)C)NC(=O)[C@H](CCN)NC(=O)[C@H](C(C)C)NC(=O)[C@H](Cc2ccc(-c3ccccc3)cc2)NC1=O [Compound 1062] ({CH2CO}-FYDWL[Bip]V[Dab][dL][Dab]LVTCA-NH2; thioether N-14)
3,19.8,CC(C)C[C@@H]1NC(=O)[C@H](Cc2c[nH]c3ccccc23)NC(=O)[C@H](CC(=O)O)NC(=O)[C@H](Cc2ccc(O)cc2)NC(=O)[C@H](Cc2ccccc2)NC(=O)CSC[C@@H](C(=O)NCC(N)=O)NC(=O)[C@H](CO)NC(=O)[C@H](C(C)C)NC(=O)[C@H](CC(C)C)NC(=O)[C@H](CCN)NC(=O)[C@@H](CC(C)C)NC(=O)[C@H](CCN)NC(=O)[C@H](C(C)C)NC(=O)[C@H](Cc2ccc(-c3ccccc3)cc2)NC1=O [Compound 1063] ({CH2CO}-FYDWL[Bip]V[Dab][dL][Dab]LVSCG-NH2; thioether N-14)
4,51.3,CC(C)C[C@@H]1NC(=O)[C@H](Cc2c[nH]c3ccccc23)NC(=O)[C@H](CC(=O)O)NC(=O)[C@H](Cc2ccc(O)cc2)NC(=O)[C@H](Cc2ccccc2)NC(=O)CSC[C@@H](C(=O)NCC(N)=O)NC(=O)[C@H]([C@@H](C)O)NC(=O)[C@H](C(C)C)NC(=O)[C@H](CC(C)C)NC(=O)[C@H](CC(N)=O)NC(=O)[C@@H](CC(C)C)NC(=O)[C@H](CCCN)NC(=O)[C@H](C(C)C)NC(=O)[C@H](Cc2ccc(-c3ccccc3)cc2)NC1=O [Compound 1064] ({CH2CO}-FYDWL[Bip]V[Orn][dL]NLVTCG-NH2; thioether N-14)
5,12.8,CC(C)C[C@@H]1NC(=O)[C@H](Cc2c[nH]c3ccccc23)NC(=O)[C@H](CC(=O)O)NC(=O)[C@H](Cc2ccc(O)cc2)NC(=O)[C@H](Cc2ccccc2)NC(=O)CSC[C@@H](C(=O)N[C@@H](C)C(N)=O)NC(=O)[C@H](CO)NC(=O)[C@H](C(C)C)NC(=O)[C@H](CC(C)C)NC(=O)[C@H](CC(N)=O)NC(=O)[C@@H](CC(C)C)NC(=O)[C@H](CCCN)NC(=O)[C@H](C(C)C)NC(=O)[C@H](Cc2ccc(-c3ccccc3)cc2)NC1=O [Compound 1065] ({CH2CO}-FYDWL[Bip]V[Orn][dL]NLVSCA-NH2; thioether N-14)
6,42.2,CC(C)C[C@@H]1NC(=O)[C@H](Cc2c[nH]c3ccccc23)NC(=O)[C@H](CC(=O)O)NC(=O)[C@H](Cc2ccc(O)cc2)NC(=O)[C@H](Cc2ccccc2)NC(=O)CSC[C@@H](C(=O)N[C@@H](C)C(N)=O)NC(=O)[C@H]([C@@H](C)O)NC(=O)[C@H](C(C)C)NC(=O)[C@H](CC(C)C)NC(=O)[C@H](CC(N)=O)NC(=O)[C@@H](CC(C)C)NC(=O)[C@H](CCCN)NC(=O)[C@H](C(C)C)NC(=O)[C@H](Cc2ccc(-c3ccccc3)cc2)NC1=O [Compound 1066] ({CH2CO}-FYDWL[Bip]V[Orn][dL]NLVTCA-NH2; thioether N-14)
7,22.2,CC(C)C[C@@H]1NC(=O)[C@H](Cc2c[nH]c3ccccc23)NC(=O)[C@H](CC(=O)O)NC(=O)[C@H](Cc2ccc(O)cc2)NC(=O)[C@H](Cc2ccccc2)NC(=O)CSC[C@@H](C(=O)NCC(N)=O)NC(=O)[C@H](CO)NC(=O)[C@H](C(C)C)NC(=O)[C@H](CC(C)C)NC(=O)[C@H](CC(N)=O)NC(=O)[C@@H](CC(C)C)NC(=O)[C@H](CCCN)NC(=O)[C@H](C(C)C)NC(=O)[C@H](Cc2ccc(-c3ccccc3)cc2)NC1=O [Compound 1067] ({CH2CO}-FYDWL[Bip]V[Orn][dL]NLVSCG-NH2; thioether N-14)
8,17.4,CC(C)C[C@@H]1NC(=O)[C@H](Cc2c[nH]c3ccccc23)NC(=O)[C@H](CC(=O)O)NC(=O)[C@H](Cc2ccc(O)cc2)NC(=O)[C@H](Cc2ccccc2)NC(=O)CSC[C@@H](C(=O)NCC(N)=O)NC(=O)[C@H]([C@@H](C)O)NC(=O)[C@H](C(C)C)NC(=O)[C@H](CC(C)C)NC(=O)[C@H](CCN)NC(=O)[C@@H](CC(C)C)NC(=O)[C@H](CCCN)NC(=O)[C@H](C(C)C)NC(=O)[C@H](Cc2ccc(-c3ccccc3)cc2)NC1=O [Compound 1068] ({CH2CO}-FYDWL[Bip]V[Orn][dL][Dab]LVTCG-NH2; thioether N-14)
9,13.9,CC(C)C[C@@H]1NC(=O)[C@H](Cc2c[nH]c3ccccc23)NC(=O)[C@H](CC(=O)O)NC(=O)[C@H](Cc2ccc(O)cc2)NC(=O)[C@H](Cc2ccccc2)NC(=O)CSC[C@@H](C(=O)N[C@@H](C)C(N)=O)NC(=O)[C@H](CO)NC(=O)[C@H](C(C)C)NC(=O)[C@H](CC(C)C)NC(=O)[C@H](CCN)NC(=O)[C@@H](CC(C)C)NC(=O)[C@H](CCCN)NC(=O)[C@H](C(C)C)NC(=O)[C@H](Cc2ccc(-c3ccccc3)cc2)NC1=O [Compound 1069] ({CH2CO}-FYDWL[Bip]V[Orn][dL][Dab]LVSCA-NH2; thioether N-14)
10,38.8,CC(C)C[C@@H]1NC(=O)[C@H](Cc2c[nH]c3ccccc23)NC(=O)[C@H](CC(=O)O)NC(=O)[C@H](Cc2ccc(O)cc2)NC(=O)[C@H](Cc2ccccc2)NC(=O)CSC[C@@H](C(=O)NCC(N)=O)NC(=O)[C@H]([C@@H](C)O)NC(=O)[C@H](C(C)C)NC(=O)[C@H](CC(C)C)NC(=O)[C@H](CC(N)=O)NC(=O)[C@@H](CC(C)C)NC(=O)[C@H](CN)NC(=O)[C@H](C(C)C)NC(=O)[C@H](Cc2ccc(-c3ccccc3)cc2)NC1=O [Compound 1070] ({CH2CO}-FYDWL[Bip]V[Dap][dL]NLVTCG-NH2; thioether N-14)
11,27.1,CC(C)C[C@@H]1NC(=O)[C@H](Cc2c[nH]c3ccccc23)NC(=O)[C@H](CC(=O)O)NC(=O)[C@H](Cc2ccc(O)cc2)NC(=O)[C@H](Cc2ccccc2)NC(=O)CSC[C@@H](C(=O)N[C@@H](C)C(N)=O)NC(=O)[C@H]([C@@H](C)O)NC(=O)[C@H](C(C)C)NC(=O)[C@H](CC(C)C)NC(=O)[C@H](CCN)NC(=O)[C@@H](CC(C)C)NC(=O)[C@H](CCCN)NC(=O)[C@H](C(C)C)NC(=O)[C@H](Cc2ccc(-c3ccccc3)cc2)NC1=O [Compound 1072] ({CH2CO}-FYDWL[Bip]V[Orn][dL][Dab]LVTCA-NH2; thioether N-14)
12,10,CC(C)C[C@@H]1NC(=O)[C@H](Cc2c[nH]c3ccccc23)NC(=O)[C@H](CC(=O)O)NC(=O)[C@H](Cc2ccc(O)cc2)NC(=O)[C@H](Cc2ccccc2)NC(=O)CSC[C@@H](C(=O)NCC(N)=O)NC(=O)[C@H](CO)NC(=O)[C@H](C(C)C)NC(=O)[C@H](CC(C)C)NC(=O)[C@H](CCN)NC(=O)[C@@H](CC(C)C)NC(=O)[C@H](CCCN)NC(=O)[C@H](C(C)C)NC(=O)[C@H](Cc2ccc(-c3ccccc3)cc2)NC1=O [Compound 1073] ({CH2CO}-FYDWL[Bip]V[Orn][dL][Dab]LVSCG-NH2; thioether N-14)
